Key:
BRD4(BD1) = BRD4(BD1) (Homo sapiens (Human), UniProt O60885); test: In vitro enzyme inhibition assay (BRD4 AlphaScreen); type: binding
Procedure, shortened: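 AlphaScreen proximity readout, using streptavidin donor and Ni-chelate acceptor beads at 5 μg/mL final, monitors biotin-H4 tetraacetylated peptide interaction with purified His-tagged BRD4.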

[1] = test system: Raji, human Burkitts lymphoma cells; test: Cell-MTS proliferation assay, Raji; type: cell-based; conditions: Homo sapiens, Raji, 168 hr
Procedure, shortened: (§1)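 Seven-day colorimetric MTS assay; compound at 11 concentrations from 100 μM down to 2.0 nM final, added a day after plating. IC50 from OD490 normalised to DMSO controls.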

[2] = test system: HL-60, human proleukemia cells; test: Cell-MTS proliferation assay, HL-60; type: cell-based; conditions: Homo sapiens, HL-60, 168 hr
Procedure, shortened: as §1

[3] = test system: NCI-H460, human non-small cell lung cancer cells; test: Cell-MTS proliferation assay, NCI-H460; type: cell-based; conditions: Homo sapiens, NCI-H460, 168 hr
Protocol: The Cell-MTS assay is a 7-day plate-based colorimetric assay which quantifies the amount of newly generated NADH in the presence or absence of test compound. The NADH level is used for the quantification of cancer cell proliferation.
Established cancer cell lines with a variety of driving mutations were obtained from American Type Culture Collection (ATCC) and routinely passaged according to ATCC protocols. For routine assay, these cells were seeded at densities which enabled ˜90% confluence after 7 days of culture. Raji, human Burkitts lymphoma cells, (cMYC) were seeded at 15,000 cells per 96-well. HL-60, human proleukemia cells, (NRAS, p16, p53, c-Myc amplified) were seeded at 5,000 cells per 96-well. NCI-H460, human non-small cell lung cancer cells, (KRAS, PIK3CA, STLK11, p16) were seeded at 3,000 cells per 96-well. 24 hr after plating, cells received an 11-point dilution of test compound with final concentration ranges from 100 μM to 2.0 nM. […] At the end of this incubation period, 80 μL of media is removed and 20 μL of CellTiter 96® AQueous Non-Radioactive Cell Proliferation Assay soln (Promega) was added. The cells were incubated until the OD490 was >0.6. IC50 values were calculated using the IDBS XLfit software package and include background subtracted OD490 values and normalization to DMSO controls. Cellular proliferation IC50 values were uploaded and archived using the Chem Biography Platform.

[4] = in vitro enzyme inhibition assay

With CCS(=O)(=O)Nc1ccc(Oc2ccc(F)cc2F)c(-c2cn(C)c(=O)c3ccncc23)c1 [Example 127, N-[4-(2,4-difluorophenoxy)-3-(2-methyl-1-oxo-2,6-naphthyridin-4-yl)phenyl]ethanesulfonamide] the IC50 (BRD4(BD1); class symbols A/B/C) was under 500 nM, the IC50 ([1]; Cell-MTS, class symbols A/B/C) was under 500 nM and the IC50 ([2]; Cell-MTS, class symbols A/B/C) was under 500 nM. The IC50 ([3]; Cell-MTS, class symbols A/B/C) was over 5000 nM.

With Cc1cnn(-c2ccc3c(=O)n(C)cc(-c4cc(S(C)(=O)=O)ccc4OCC4CC4)c3c2)c1 [Example 128, 4-[2-(cyclopropylmethoxy)-5-methylsulfonylphenyl]-2-methyl-6-(4-methylpyrazol-1-yl)isoquinolin-1-one] the IC50 (BRD4(BD1); class symbols A/B/C) was under 500 nM, the IC50 ([1]; Cell-MTS, class symbols A/B/C) was under 500 nM and the IC50 ([2]; Cell-MTS, class symbols A/B/C) was under 500 nM. The IC50 ([3]; Cell-MTS, class symbols A/B/C) was over 5000 nM.

CCS(=O)(=O)Nc1ccc(Oc2ccc(F)cc2F)c(-c2cn(C)c(=O)c3cncn23)c1 [Example 129, N-[4-(2,4-difluorophenoxy)-3-(7-methyl-8-oxoimidazo[1,5-a]pyrazin-5-yl)phenyl]ethanesulfonamide] showed an IC50 (BRD4(BD1); class symbols A/B/C) of under 500 nM, an IC50 ([1]; Cell-MTS, class symbols A/B/C) of under 500 nM and an IC50 ([2]; Cell-MTS, class symbols A/B/C) of under 500 nM. It also gave an IC50 ([3]; Cell-MTS, class symbols A/B/C) of over 5000 nM.

In the case of Cn1cc(-c2cc(S(C)(=O)=O)ccc2OCC2CC2)n2cncc2c1=O [Example 130, 5-[2-(cyclopropylmethoxy)-5-methylsulfonylphenyl]-7-methylimidazo[1,5-a]pyrazin-8-one], the IC50 (BRD4(BD1); class symbols A/B/C) is reported as under 500 nM, the IC50 ([1]; Cell-MTS, class symbols A/B/C) is reported as 500 to 5000 nM and the IC50 ([2]; Cell-MTS, class symbols A/B/C) is reported as under 500 nM. For the same compound, the IC50 ([3]; Cell-MTS, class symbols A/B/C) was over 5000 nM.

Work on COc1ccc(-c2cn(C)c(=O)c3cncn23)cc1NS(C)(=O)=O [Example 132, N-[2-methoxy-5-(7-methyl-8-oxoimidazo[1,5-a]pyrazin-5-yl)phenyl]methanesulfonamide] yielded an IC50 (BRD4(BD1); class symbols A/B/C) of 500 to 5000 nM, an IC50 ([1]; Cell-MTS, class symbols A/B/C) of over 5000 nM and an IC50 ([2]; Cell-MTS, class symbols A/B/C) of 500 to 5000 nM. It also gave an IC50 ([3]; Cell-MTS, class symbols A/B/C) of 500 to 5000 nM.

CCS(=O)(=O)Nc1ccc(Oc2ccc(F)cc2F)c(-c2cc(Cl)c(=O)n(C)c2)c1 [Example 134, N-[3-(5-chloro-1-methyl-6-oxopyridin-3-yl)-4-(2,4-difluorophenoxy)phenyl]ethanesulfonamide] was tested, and the IC50 (BRD4(BD1); class symbols A/B/C) was under 500 nM, the IC50 ([1]; Cell-MTS, class symbols A/B/C) was under 500 nM and the IC50 ([2]; Cell-MTS, class symbols A/B/C) was under 500 nM. It also gave an IC50 ([3]; Cell-MTS, class symbols A/B/C) of 500 to 5000 nM.

CCS(=O)(=O)c1ccc(OCC2CC2)c(-c2cn(C)c(=O)c3ccccc23)c1 [Example 135, 4-[2-(cyclopropylmethoxy)-5-ethylsulfonylphenyl]-2-methylisoquinolin-1-one] gave an IC50 (BRD4(BD1); class symbols A/B/C) of under 500 nM, an IC50 ([1]; Cell-MTS, class symbols A/B/C) of under 500 nM and an IC50 ([2]; Cell-MTS, class symbols A/B/C) of under 500 nM. The IC50 ([3]; Cell-MTS, class symbols A/B/C) was 500 to 5000 nM.

Cc1cc(-c2cc(S(C)(=O)=O)ccc2OCC2CC2)nn(C)c1=O [Example 136, 6-[2-(cyclopropylmethoxy)-5-methylsulfonylphenyl]-2,4-dimethylpyridazin-3-one] showed an IC50 (BRD4(BD1); class symbols A/B/C) of 500 to 5000 nM, an IC50 ([1]; Cell-MTS, class symbols A/B/C) of over 5000 nM and an IC50 ([2]; Cell-MTS, class symbols A/B/C) of 500 to 5000 nM. For the same compound, the IC50 ([3]; Cell-MTS, class symbols A/B/C) was over 5000 nM.

With CCS(=O)(=O)Nc1ccc(Oc2ccc(F)cc2F)c(-c2cc(C(F)(F)F)c(=O)n(C)c2)c1 [Example 138, N-[4-(2,4-difluorophenoxy)-3-[1-methyl-6-oxo-5-(trifluoromethyl)pyridine-3-yl]phenyl]ethanesulfonamide] the IC50 (BRD4(BD1); class symbols A/B/C) was under 500 nM, the IC50 ([1]; Cell-MTS, class symbols A/B/C) was under 500 nM and the IC50 ([2]; Cell-MTS, class symbols A/B/C) was under 500 nM. The IC50 ([3]; Cell-MTS, class symbols A/B/C) was over 5000 nM.

CCS(=O)(=O)Nc1ccc(Oc2ccc(F)cc2F)c(-c2cn(C)c(=O)cc2F)c1 [Example 139, N-[4-(2,4-difluorophenoxy)-3-(4-fluoro-1-methyl-6-oxopyridin-3-yl)phenyl]ethanesulfonamide] gave an IC50 (BRD4(BD1); class symbols A/B/C) of under 500 nM, an IC50 ([1]; Cell-MTS, class symbols A/B/C) of under 500 nM and an IC50 ([2]; Cell-MTS, class symbols A/B/C) of under 500 nM. For the same compound, the IC50 ([3]; Cell-MTS, class symbols A/B/C) was over 5000 nM.

For CCS(=O)(=O)Nc1ccc(Oc2ccc(F)cc2F)c(-c2cc(C3CC3)c(=O)n(C)c2)c1 [Example 140, N-[3-(5-cyclopropyl-1-methyl-6-oxopyridin-3-yl)-4-(2,4-difluorophenoxy)phenyl]ethanesulfonamide], the IC50 (BRD4(BD1); [4]) was under 500 nM, the IC50 ([1]; Cell-MTS proliferation) was under 500 nM and the IC50 ([2]; Cell-MTS proliferation) was under 500 nM. It also gave an IC50 ([3]; Cell-MTS proliferation) of over 5000 nM.

Compound Cn1cc(-c2nc(CS(C)(=O)=O)ncc2OCC2CC2)c2ccccc2c1=O [Example 143, 4-[5-(cyclopropylmethoxy)-2-(methylsulfonylmethyl)pyrimidin-4-yl]-2-methylisoquinolin-1-one] has an IC50 (BRD4(BD1); [4]) of under 500 nM, an IC50 ([1]; Cell-MTS proliferation) of 500 to 5000 nM and an IC50 ([2]; Cell-MTS proliferation) of 500 to 5000 nM. The IC50 ([3]; Cell-MTS proliferation) was over 5000 nM.

For Cc1cc(-c2nc(CS(C)(=O)=O)ncc2OCC2CC2)cn(C)c1=O [Example 144, 5-[5-(cyclopropylmethoxy)-2-(methylsulfonylmethyl)pyrimidin-4-yl]-1,3-dimethylpyridin-2-one], the IC50 (BRD4(BD1); [4]) was under 500 nM, the IC50 ([1]; Cell-MTS proliferation) was over 5000 nM and the IC50 ([2]; Cell-MTS proliferation) was 500 to 5000 nM. For the same compound, the IC50 ([3]; Cell-MTS proliferation) was over 5000 nM.

— US10023592B2, “Bromodomain inhibitors” (Celgene Quanticel Research, Inc., priority 2013, dated 2018)
